# Laboratory results published in patent publication US20260022143A1, “Cyclic Peptide Inhibitors of IL-23” (JANSSEN PHARMACEUTICA NV, priority 2022, published 2026).
# Positions of bridges follow the written chain, without caps; N, C: chain ends. Non-standard residues stand in square brackets, D forms with d. Residues, ends and D or L forms follow the SMILES beside them. *: point of attachment. Trp(7-Me) = Cc1cccc2c(C[C@H](N)C(=O)O)c[nH]c12; 2Nal = N[C@@H](Cc1ccc2ccccc2c1)C(=O)O; AEF = NCCOc1ccc(C[C@H](N)C(=O)O)cc1; dNMeY = CN[C@H](Cc1ccc(O)cc1)C(=O)O; 3Pal = N[C@@H](Cc1cccnc1)C(=O)O; d3Pal = N[C@H](Cc1cccnc1)C(=O)O; Pen = CC(C)(S)[C@H](N)C(=O)O; αMeK = C[C@](N)(CCCCN)C(=O)O; dOrn = NCCC[C@@H](N)C(=O)O; Thp = NC1(C(=O)O)CCOCC1; Me2NCH2CH2 = CN(C)CC*
# Assay: Exposed Polar Surface Area (EPSA)
# Type: physicochemical
# Conditions: SFC on Chirex 3014 column; sample 1 mM DMSO stock
# Excerpt: Exposed Polar Surface Area (EPSA) is an experimental descriptor of molecular polarity obtained from chromatographic retention in supercritical fluid chromatography (SFC).
# The stationary phase (Chirex 3014(S)-valine and (R)-1-(alpha-naphthyl) ethylamine) was selected for its balance of lipophilic and polar attributes and its capacity to separate compounds with wide polarity differences. The mobile phase consists of methanol (+Ammonium formate) and CO2. Polar compounds are retained stronger under these conditions and a low-slope gradient of methanol achieves elution based on increasing polarity of the mobile phase. Results are normalized using calibration standards generating a linear relationship between retention times and EPSA values. The unit of EPSA is Å^2.
# Along with the measurement of compounds of interest, a series of 8 calibration standards (see Materials) are analyzed generating a linear relationship between retention times and EPSA value. The 8 compounds used as calibration standard have their own EPSA value defined by G. Goetz based on the comparison with TPSA (see G. Goetz, L. Philippe and M. Shapiro, “EPSA: A novel supercritical fluid chromatography technique enabling the design of permeable cyclic peptides,” ACS Med. Chem. Lett., vol. 5, pp. 1167-1172, 2014 for more information). The slope from the linear relationship between EPSA values of these eight compounds and their retention times is used to determine the EPSA value of each compound of interest that's measured under the same condition using the equation as below: […]
# The mixture of calibrations standard is reinjected every 20 compounds to validate the stability of the retention time.
# The mobile phase modifier consists of ammonium formate LC_MS grade (>99%) (CAS number 540-69-2) diluted to 20 mM in HPLC grade Methanol (MeOH, CAS number 67-56-1) and liquid C02 SFC grade (CAS number 124-38-9).
# Antipyrine (CAS number: 60-80-0) Chlorpromazine hydrochloride (CAS number: 69-09-0), desipramine hydrochloride (CAS number: […]), pindolol (CAS Number: 13523-86-9), diclofenac (CAS number: 15307-79-6)), m-nitro benzoic acid (CAS number: 121-92-6), bumetanide (CAS number: 28395-03-1), furosemide (CAS number: 54-31-9) were purchased from Sigma Aldrich (Steihneim, Germany).
# All analyses were performed on a ultra performance convergence chromatography (UPC™) apparatus (Waters, Milford, MA, USA) equipped with a sample manager, a binary solvent delivery pump (BSM), a column manager, a convergence manager (automated back pressure regulator), a photo diode array detector (DAD) with a high pressure flow cell, and a mass detector simple quadrupole QDa. After the UV detector, the effluent of the SFC was mixed with an eluent consist of mixture MeOH/water (+0.3% Ammonia) 95/5 delivered by a make up pump with a flow rate of 0.4 mL/min and then split to the QDa using a splitter. The instrument was controlled, and data were processed with Masslynx 4.1.
# The Analyses were performed using a 4.6×50 mm Chirex 3014(S)-valine and (R)-1-(alpha- naphthyl) ethylamine column (Phenomenex, Le Pecq, France) with 5 um particle and 100A pore size. The flow rate was 4 mL/min with the outlet pressure set to 14 MPa. The injection volume was 2 μL. the mobile phase composition was varied from 5% to 60% modifier at 20%/ min in a linear gradient, holding at 60% for 1.45 min and reverting to the original 5% until the end of the run. Data are acquired during 5 min. An equilibration time of 1 min is applied between 2 injections resulting in an injection every 6 min. each sample is analyzed in duplicate, resulting in a sample to sample turnaround time of 12 min.
# The column temperature was set to 35° C. The mass detector was used in full scan from 100 to 800 for small molecules and from 500 to 1200 for peptides.
# Each sample is delivered by compound logistics from DMSO stock solution without dilution. The concentration is 1 mM and the volume is 60 μL.
row,EPSA [Å^2],Compound
1,170.27,"CC(=O)NCCCC[C@H](NC(=O)[C@](C)(CCCCN)NC(=O)[C@H](Cc1ccc2ccccc2c1)NC(=O)[C@H](Cc1ccc(OCCN)cc1)NC(=O)[C@H]1NC(=O)[C@H](Cc2ccc(O)cc2)NC(=O)[C@H](Cc2c[nH]c3c(C)cccc23)NC(=O)[C@H]([C@@H](C)O)NC(=O)[C@H](CC(N)=O)NC(=O)[C@@H](NC(C)=O)C(C)(C)SSC1(C)C)C(=O)N[C@@H](CC(N)=O)C(=O)N[C@H](CCCCN)C(=O)N(C)[C@H](Cc1ccc(O)cc1)C(N)=O [compound 21, MeCO-Pen(3)-N-T-7MeW-Y-Pen(3)-AEF-2Nal-aMeK-K(Ac)-N-k-NMeDTyr-CONH2] (Ac-[Pen]NT[Trp(7-Me)]Y[Pen][AEF][2Nal][αMeK]K(Ac)N[dK][dNMeY]-NH2; disulfide 1-6 (inferred))"

# Same assay, conditions: SFC on Chirex 3014 column; sample 1 mM DMSO stock; read-out: EPSA
row,Compound,EPSA [A^2]
1,"CC(=O)NCCCC[C@@H]1NC(=O)[C@H](Cc2c[nH]c3c(C)cccc23)NC(=O)[C@H]([C@@H](C)O)NC(=O)[C@H](CC(N)=O)NC(=O)[C@@H](NC(C)=O)C(C)(C)SSC(C)(C)[C@@H](C(=O)N[C@@H](Cc2ccc(OCCN)cc2)C(=O)N[C@@H](Cc2ccc3ccccc3c2)C(=O)N[C@@](C)(CCCCN)C(=O)N[C@@H](CCCCNC(C)=O)C(=O)N[C@@H](CC(N)=O)C(=O)N[C@@H](C(=O)N(C)[C@H](Cc2ccc(O)cc2)C(N)=O)C(C)C)NC1=O [compound 14, MeCO-Pen(3)-N-T-7MeW-K(Ac)-Pen(3)-AEF-2Nal-aMeK-K(Ac)-N-v-NMeDTyr-CONH2] (Ac-[Pen]NT[Trp(7-Me)]K(Ac)[Pen][AEF][2Nal][αMeK]K(Ac)N[dV][dNMeY]-NH2; disulfide 1-6)",166
2,"CC(=O)NCCCC[C@@H]1NC(=O)[C@H](Cc2c[nH]c3c(C)cccc23)NC(=O)[C@H]([C@@H](C)O)NC(=O)[C@H](CC(N)=O)NC(=O)[C@@H](NC(C)=O)C(C)(C)SSC(C)(C)[C@@H](C(=O)N[C@@H](Cc2ccc(OCCN)cc2)C(=O)N[C@@H](Cc2ccc3ccccc3c2)C(=O)N[C@@](C)(CCCCN)C(=O)N[C@@H](CCCCNC(C)=O)C(=O)N[C@@H](CC(N)=O)C(=O)N[C@@H](C(=O)N(C)[C@H](Cc2ccc(O)cc2)C(N)=O)[C@H](C)O)NC1=O [compound 15, MeCO-Pen(3)-N-T-7MeW-K(Ac)-Pen(3)-AEF-2Nal-aMeK-K(Ac)-N-t-NMeDTyr-CONH2] (Ac-[Pen]NT[Trp(7-Me)]K(Ac)[Pen][AEF][2Nal][αMeK]K(Ac)N[dT][dNMeY]-NH2; disulfide 1-6 (inferred))",168
3,"CC(=O)NCCCC[C@@H]1NC(=O)[C@H](Cc2c[nH]c3c(C)cccc23)NC(=O)[C@H]([C@@H](C)O)NC(=O)[C@H](CC(N)=O)NC(=O)[C@@H](NC(C)=O)C(C)(C)SSC(C)(C)[C@@H](C(=O)N[C@@H](Cc2ccc(OCCN)cc2)C(=O)N[C@@H](Cc2ccc3ccccc3c2)C(=O)N[C@@](C)(CCCCN)C(=O)N[C@@H](CCCCNC(C)=O)C(=O)N[C@@H](CC(N)=O)C(=O)N[C@H](CCCN)C(=O)N(C)[C@H](Cc2ccc(O)cc2)C(N)=O)NC1=O [compound 18, MeCO-Pen(3)-N-T-7MeW-K(Ac)-Pen(3)-AEF-2Nal-aMeK-K(Ac)-N-orn-NMeDTyr-CONH2] (Ac-[Pen]NT[Trp(7-Me)]K(Ac)[Pen][AEF][2Nal][αMeK]K(Ac)N[dOrn][dNMeY]-NH2; disulfide 1-6)",219
4,"CC(=O)NCCCC[C@@H]1NC(=O)[C@H](Cc2c[nH]c3c(C)cccc23)NC(=O)[C@H]([C@@H](C)O)NC(=O)[C@H](CC(N)=O)NC(=O)[C@@H](NC(C)=O)C(C)(C)SSC(C)(C)[C@@H](C(=O)N[C@@H](Cc2ccc(OCCN)cc2)C(=O)N[C@@H](Cc2ccc3ccccc3c2)C(=O)N[C@@](C)(CCCCN)C(=O)N[C@@H](CCCCNC(C)=O)C(=O)N[C@@H](CC(N)=O)C(=O)N[C@H](CO)C(=O)N(C)[C@H](Cc2ccc(O)cc2)C(N)=O)NC1=O [compound 19, MeCO-Pen(3)-N-T-7MeW-K(Ac)-Pen(3)-AEF-2Nal-aMeK-K(Ac)-N-s-NMeDTyr-CONH2] (Ac-[Pen]NT[Trp(7-Me)]K(Ac)[Pen][AEF][2Nal][αMeK]K(Ac)N[dS][dNMeY]-NH2; disulfide 1-6)",171
5,"CC(=O)NCCCC[C@@H]1NC(=O)[C@H](Cc2c[nH]c3c(C)cccc23)NC(=O)[C@H]([C@@H](C)O)NC(=O)[C@H](CC(N)=O)NC(=O)[C@@H](NC(C)=O)C(C)(C)SSC(C)(C)[C@@H](C(=O)N[C@@H](Cc2ccc(OCCN)cc2)C(=O)N[C@@H](Cc2ccc3ccccc3c2)C(=O)N[C@@](C)(CCCCN)C(=O)N[C@@H](CCCCNC(C)=O)C(=O)N[C@@H](CC(N)=O)C(=O)N[C@H](Cc2ccccc2)C(=O)N(C)[C@H](Cc2ccc(O)cc2)C(N)=O)NC1=O [compound 20, MeCO-Pen(3)-N-T-7MeW-K(Ac)-Pen(3)-AEF-2Nal-aMeK-K(Ac)-N-f-NMeDTyr-CONH2] (Ac-[Pen]NT[Trp(7-Me)]K(Ac)[Pen][AEF][2Nal][αMeK]K(Ac)N[dF][dNMeY]-NH2; disulfide 1-6 (inferred))",168
6,"CC(=O)NCCCC[C@H](NC(=O)[C@](C)(CCCCN)NC(=O)[C@H](Cc1ccc2ccccc2c1)NC(=O)[C@H](Cc1ccc(OCCN)cc1)NC(=O)[C@H]1NC(=O)[C@H](Cc2ccc(O)cc2)NC(=O)[C@H](Cc2c[nH]c3c(C)cccc23)NC(=O)[C@H]([C@@H](C)O)NC(=O)[C@H](CC(N)=O)NC(=O)[C@@H](NC(C)=O)C(C)(C)SSC1(C)C)C(=O)N[C@@H](CC(N)=O)C(=O)N[C@H](CCCCN)C(=O)N(C)[C@H](Cc1ccc(O)cc1)C(N)=O [compound 21, MeCO-Pen(3)-N-T-7MeW-Y-Pen(3)-AEF-2Nal-aMeK-K(Ac)-N-k-NMeDTyr-CONH2] (Ac-[Pen]NT[Trp(7-Me)]Y[Pen][AEF][2Nal][αMeK]K(Ac)N[dK][dNMeY]-NH2; disulfide 1-6 (inferred))",152

# Now from value to compound:
row,EPSA [A^2],Compound
1,148,"CC(=O)NCCCC[C@@H]1NC(=O)[C@H](Cc2c[nH]c3c(C)cccc23)NC(=O)[C@H]([C@@H](C)O)NC(=O)[C@H](CC(N)=O)NC(=O)[C@@H](NC(C)=O)C(C)(C)SSC(C)(C)[C@@H](C(=O)N[C@@H](Cc2ccc(OCCN)cc2)C(=O)N[C@@H](Cc2ccc3ccccc3c2)C(=O)N[C@@](C)(CCCCN)C(=O)N[C@@H](CCCCNC(C)=O)C(=O)N[C@@H](CC(N)=O)C(=O)N[C@H](Cc2c[nH]cn2)C(=O)N(C)[C@H](Cc2ccc(O)cc2)C(N)=O)NC1=O [compound 26, MeCO-Pen(3)-N-T-7MeW-K(Ac)-Pen(3)-AEF-2Nal-aMeK-K(Ac)-N-h-NMeDTyr-CONH2] (Ac-[Pen]NT[Trp(7-Me)]K(Ac)[Pen][AEF][2Nal][αMeK]K(Ac)N[dH][dNMeY]-NH2; disulfide 1-6 (inferred))"
2,166,"CC(=O)NCCCC[C@@H]1NC(=O)[C@H](Cc2c[nH]c3c(C)cccc23)NC(=O)[C@H]([C@@H](C)O)NC(=O)[C@H](CC(N)=O)NC(=O)[C@@H](NC(C)=O)C(C)(C)SSC(C)(C)[C@@H](C(=O)N[C@@H](Cc2ccc(OCCN)cc2)C(=O)N[C@@H](Cc2ccc3ccccc3c2)C(=O)N[C@@](C)(CCCCN)C(=O)N[C@@H](CCCCNC(C)=O)C(=O)N[C@@H](CC(N)=O)C(=O)N[C@@H](Cc2cccnc2)C(=O)N(C)[C@H](Cc2ccc(O)cc2)C(N)=O)NC1=O [compound 30, MeCO-Pen(3)-N-T-7MeW-K(Ac)-Pen(3)-AEF-2Nal-aMeK-K(ac)-N-3Pya-NMeDTyr-CONH2] (Ac-[Pen]NT[Trp(7-Me)]K(Ac)[Pen][AEF][2Nal][αMeK]K(Ac)N[3Pal][dNMeY]-NH2; disulfide 1-6)"
3,158,CC(=O)NCCCC[C@@H]1NC(=O)[C@H](Cc2c[nH]c3c(C)cccc23)NC(=O)[C@H]([C@@H](C)O)NC(=O)[C@H](CC(N)=O)NC(=O)[C@@H](NC(C)=O)C(C)(C)SSC(C)(C)[C@@H](C(=O)N[C@@H](Cc2ccc(OCCN(C)C)cc2)C(=O)N[C@@H](Cc2ccc3ccccc3c2)C(=O)N[C@@](C)(CCCCN)C(=O)N[C@@H](CCCCNC(C)=O)C(=O)N[C@@H](CC(N)=O)C(=O)NC2(C(N)=O)CCOCC2)NC1=O [compound 31] (Ac-[Pen]NT[Trp(7-Me)]K(Ac)[Pen]Y(Me2NCH2CH2)[2Nal][αMeK]K(Ac)N[Thp]-NH2; disulfide 1-6)
4,166,"CC(=O)NCCCC[C@@H]1NC(=O)[C@H](Cc2c[nH]c3c(C)cccc23)NC(=O)[C@H]([C@@H](C)O)NC(=O)[C@H](CC(N)=O)NC(=O)[C@@H](NC(C)=O)C(C)(C)SSC(C)(C)[C@@H](C(=O)N[C@@H](Cc2ccc(OCCN)cc2)C(=O)N[C@@H](Cc2ccc3ccccc3c2)C(=O)N[C@@](C)(CCCCN)C(=O)N[C@@H](CCCCNC(C)=O)C(=O)N[C@@H](CC(N)=O)C(=O)N[C@H](Cc2cccnc2)C(=O)N(C)[C@H](Cc2ccc(O)cc2)C(N)=O)NC1=O [compound 32, MeCO-Pen(3)-N-T-7MeW-K(Ac)-Pen(3)-AEF-2Nal-aMeK-K(ac)-N-3pya-NMeDTyr-CONH2] (Ac-[Pen]NT[Trp(7-Me)]K(Ac)[Pen][AEF][2Nal][αMeK]K(Ac)N[d3Pal][dNMeY]-NH2; disulfide 1-6)"
